Test results reported in patent publication US12441709B2, “Therapeutic compounds” (INDIVIOR UK LIMITED, priority 2016, dated 2025).
Read-outs that look alike come from different tables or passages of the source. No end group written: not given here.

Legend:
[1] = molecular target: T1, human OX2 receptor (Homo sapiens, UniProt O43614); experiment: Orexin 2 receptor radioligand binding assay ([3H]-EMPA competition); conditions: CHO membranes, 2 nM [3H]-EMPA, 60 min room temperature; read-out: hOX2 pKi (converted)
T1 construct: expressed in transfected cells; host or cells: CHO cell line (membranes)
T1 sequence (O43614 1-444): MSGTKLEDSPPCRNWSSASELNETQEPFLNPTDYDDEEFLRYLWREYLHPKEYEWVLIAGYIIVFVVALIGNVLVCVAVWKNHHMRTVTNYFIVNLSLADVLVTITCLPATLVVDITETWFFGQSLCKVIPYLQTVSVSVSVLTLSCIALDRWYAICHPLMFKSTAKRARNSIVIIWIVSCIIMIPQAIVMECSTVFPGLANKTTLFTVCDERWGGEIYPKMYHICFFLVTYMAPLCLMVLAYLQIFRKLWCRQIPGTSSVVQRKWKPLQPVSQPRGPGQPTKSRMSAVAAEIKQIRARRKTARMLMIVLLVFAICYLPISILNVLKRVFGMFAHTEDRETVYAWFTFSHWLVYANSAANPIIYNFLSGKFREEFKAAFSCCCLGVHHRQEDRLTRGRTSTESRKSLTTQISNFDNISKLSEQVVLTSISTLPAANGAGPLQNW
Method: Orexin 2 Receptor Radioligand Binding Assay:
Cell membranes were prepared from the human Ox2 receptor expressing CHO cell line. The harvested cell pellets were homogenized in ice-cold buffer (15 mM TrisHCl (pH 7.4), 2 mM MgCl2, 0.3 mM EDTA, 1 mM EGTA, Sigma FAST™ protease inhibitor cocktail) and centrifuged at 45,000 rpm for 30 min at 4° C. After discarding the supernatants the pellets were re-suspended in the before mentioned buffer followed by homogenization and another centrifugation. Obtained pellets were re-suspended in ice cold buffer containing 75 mM TrisHCl (pH 7.5), 12.5 mM MgCl2, 0.3 mM EDTA, 1 mM EGTA, 250 mM sucrose and a Sigma FAST TM protease inhibitor cocktail. After protein quantification with the Pierce Protein Assay Kit, using BSA as standard, the membrane homogenates were aliquoted and frozen down at […] until further use.
(§1) Expression levels of the Ox2 receptor (Bmax) were determined by saturation binding and the Kd of the radioligand [^3H]EMPA was determined by association and dissociation kinetics. Data were elaborated with Graph Pad Prism using radioligand binding analysis. Steady state binding was reached after 60 min of incubation at room temperature. […]

[2] = molecular target: T2, human OX1 receptor (Homo sapiens, UniProt O43613); experiment: Orexin 1 receptor radioligand binding assay ([3H]-SB674042 competition); conditions: CHO membranes, 1 nM [3H]-SB674042, 90 min room temperature; read-out: hOX1 pKi (converted)
T2 construct: expressed in transfected cells; host or cells: CHO cells
T2 sequence (O43613 1-425): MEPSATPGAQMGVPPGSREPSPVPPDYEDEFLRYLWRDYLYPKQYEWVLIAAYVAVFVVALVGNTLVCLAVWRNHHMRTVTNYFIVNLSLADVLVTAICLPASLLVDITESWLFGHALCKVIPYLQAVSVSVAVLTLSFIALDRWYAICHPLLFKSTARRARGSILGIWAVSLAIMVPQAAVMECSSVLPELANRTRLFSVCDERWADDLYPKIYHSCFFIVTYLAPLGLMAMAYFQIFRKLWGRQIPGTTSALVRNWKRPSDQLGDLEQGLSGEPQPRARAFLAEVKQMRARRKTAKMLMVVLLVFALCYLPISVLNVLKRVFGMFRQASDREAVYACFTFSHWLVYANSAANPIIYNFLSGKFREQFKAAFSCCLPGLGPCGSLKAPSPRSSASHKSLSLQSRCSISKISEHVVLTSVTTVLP
Method: Orexin 1 Receptor Radioligand Binding Assay:
Cell membranes were prepared from the human OX1 receptor expressing CHO cell line. The harvested cell pellets were homogenized in ice-cold buffer (15 mM TrisHCl (pH 7.5), 2 mM MgCl2, 0.3 mM EDTA, 1 mM EGTA, Sigma protease inhibitor cocktail) and centrifuged at 41,000 g for 20 min at 4° C. After discarding the supernatants the pellets were re-suspended in the before mentioned buffer followed by homogenization and another centrifugation. Obtained pellets were re-suspended in ice cold buffer containing 75 mM TrisHCl (pH 7.5), 12.5 mM MgCl2, 0.3 mM EDTA, 1 mM EGTA, 250 mM sucrose and a protease inhibitor cocktail (Sigma). After protein quantification with the Pierce Protein Assay Kit, using BSA as standard, the membrane homogenates were aliquoted and frozen down at […] until further use.
as §1, with “Ox1” for “Ox2”, “[^3H]SB674042” for “[^3H]EMPA”, “90” for “60”

[3] = molecular target: T3, human Orexin 1 receptor (Homo sapiens, UniProt O43613); experiment: Kinetics of competitive binding (Motulsky and Mahan analysis), Orexin 1 receptor; conditions: for Ki: read-out: pKi (M&M) (converted)
T3 construct: expressed in transfected cells
T3 sequence (O43613 1-425): T2 sequence (O43613 1-425)
Method: (§2) Kinetics of Competitive Binding (Motulski and Mahan's Analysis):
(§3) Motulsky and Mahan characterisation of the Examples was performed as described by Faedo et al., European Journal of Pharmacology 692(2012), p. 1-9 with the following modifications:
(§4) The association binding experiment was initiated by addition of membranes expressing the human Orexin 1 receptor at different times to the incubation buffer containing 1 nM of [^3H] SB674042. Non-specific binding was determined in the presence of 10 μM of SB674042. The association of the radioligand to the orexin receptor was performed as described for the kinetics experiment in the presence of the competing test compounds. The competing test compounds were assayed at three concentrations corresponding to 3, 10 and 30 fold of the determined Ki. For kinetic binding studies of the human Orexin 2 receptor, the method described for the Orexin 1 receptor was used with modifications that membranes expressing the human Orexin 2 receptor were incubated in buffer containing 1 nM of [3H] EMPA and non-specific binding was determined in the presence of 10 μM ACT-078573.

[4] = molecular target: T2, human OX1 receptor; experiment: Ox1 antagonist FLIPR assay (calcium, orexin A at EC75); type: cell-based; conditions: CHO cells expressing human OX1; at least four replicates; read-out: hOX1 pIC50 (converted)
Source text: (§5) Antagonism against orexin receptors has been measured for each example compound using at least one of the following procedures. Antagonism is reported as a pIC50, where pIC50=−log10(IC50) and where IC50 is the concentration of example compound needed to inhibit 50% of the agonist response. These values may fluctuate depending on the daily cellular assay performance. Fluctuations of this kind are known to those skilled in the art. All reported values are the result of at least four replicate experiments. Ox2 values are only reported from dose response curves for which the top concentration is at least 10 μM.
(§6) Ox1 and Ox2 Antagonist FLIPR Assay: […]
(§7) The next day media is removed and replaced with 30 μL/well of cell loading buffer (a vial of Calcium 5 is solubilized in 20 mL of assay buffer) and the cells incubated for 1 hr at 37° C. The serially diluted test compounds (10 μL/well) are added to the cell plate by the FLIPR Tetra and the addition is monitored for 5 min by the instrument. […] Finally 10 μL of orexin Ain assay buffer+0.1% (w/v) bovine serum albumin is dispensed by the FLIPR Tetra at an EC75 concentration determined for each receptor on the day of the assay. Fluorescence is measured at excitation and emission wavelengths of 485 nm and 525 nm, respectively and data analyzed using Graph Pad Prism for the EC75 value of orexin A and Aplus to determine a pIC50 value for each test compound. […]

[5] = molecular target: T4, human Orexin 2 receptor (Homo sapiens, UniProt O43614); experiment: Kinetics of competitive binding (Motulsky and Mahan analysis), Orexin 2 receptor; conditions: mean of 3 studies (n=3); for Ki: 1 nM [3H] EMPA, read-out: pKi (M&M) (converted)
T4 construct: expressed in transfected cells
T4 sequence (O43614 1-444): T1 sequence (O43614 1-444)
Method: as §2, §3, §4
The results for the Orexin-2 Receptor studies are the mean of the results from 3 studies (n=3) for both Example compounds.

[6] = molecular target: T1, human OX2 receptor; experiment: Ox2 antagonist FLIPR assay (calcium, orexin A at EC75); type: cell-based; conditions: CHO cells expressing human OX2; top concentration at least 10 μM; at least four replicates; read-out: hOX2 pIC50 (converted)
Source text: as §5, §6, §7

[7] = molecular target: T5, orexin-1 (OX1) (Homo sapiens, UniProt O43613); conditions: affinity of OxA relative to OxB at OX1; literature reference (2); cited from earlier work
T5 sequence (O43613 1-425): T2 sequence (O43613 1-425)

[8] = further test results (Example 1 n = 3, Example 2 n = 1)
[9] = mean of all results (Example 1 n = 5, Example 2 n = 3)
[10] = mean of initial results (n = 2)

Compound	Ki [1] [nM]	Ki [2] [nM]	dissociation half-life [3, 8] [h]	koff [3, 8] [s⁻¹]	kon [3, 8] [M⁻¹ s⁻¹]	tR [3, 8] [min]	Ki [3, 8] [nM]	dissociation half-life [3, 9] [h]	koff [3, 9] [s⁻¹]	kon [3, 9] [M⁻¹ s⁻¹]	tR [3, 9] [min]	Ki [3, 9] [nM]	dissociation half-life [3, 10] [h]	koff [3, 10] [s⁻¹]	kon [3, 10] [M⁻¹ s⁻¹]	tR [3, 10] [min]	Ki [3, 10] [nM]	IC50 [4] [nM]	Ki [5] [nM]	dissociation half-life [5] [min]	further results
Cc1ccc(-n2nccn2)c(C(=O)N(C)[C@@H](C)CNc2ncc(C(F)(F)F)cn2)n1 [Example 2, N,6-dimethyl-3-(2H-1,2,3-triazol-2-yl)-N-[(2S)-1-{[5-(trifluoromethyl)pyrimidin-2-yl]amino}propan-2-yl]pyridine-2-carboxamide]	794	1.58	1	0.000183	78000	87	2.51	1.08	0.000183	76200	93	2.51	1.12	0.000167	75300	96	2.51	1.26	1580	4.3	koff [5]: 0.00298 s⁻¹; kon [5]: 1830 M⁻¹ s⁻¹; tR [5]: 6.2 min; IC50 [6]: 2000 nM
Cc1ccc(-n2nccn2)c(C(=O)N(C)[C@@H](C)CNc2cnc(C(F)(F)F)cn2)n1 [Example 1, N,6-dimethyl-3-(2H-1,2,3-triazol-2-yl)-N-[(2S)-1-{[5-(trifluoromethyl)pyrazin-2-yl]amino}propan-2-yl]pyridine-2-carboxamide]	251	1	1.73	0.000117	146000	150	0.794	2.83	8.33e-05	140000	245	0.501	4.13	5e-05	130000	357	0.316	0.794	316	4.1	koff [5]: 0.00352 s⁻¹; kon [5]: 10800 M⁻¹ s⁻¹; tR [5]: 5.9 min; IC50 [6]: 1000 nM
OxA: neuropeptide Orexin-A, a 33 amino acid polypeptide, agonist on OX1 and OX2 receptors (QPLPDCCRQKTCSCRLYELLHGAGNHAAGILTL; not fully specified (residue 1, C-terminus, bridges); cysteine pairing not given here; UniProt O43612 34-66, looked up)	–	–	–	–	–	–	–	–	–	–	–	–	–	–	–	–	–	–	–	–	higher affinity than OxB [7]: > 10 fold
